Structures can show the parent of a compound that is named as a salt.
Columns and labels:
substance P receptors = target: T1, substance P receptors (Homo sapiens, UniProt P25103); experiment: Radioligand receptor binding inhibitory activity using receptor from human lymphoblast cells (IM-9), 125I-BHSP; conditions: radioligand 125I-BHSP, 25° C., 30 minutes, read-out: IC50 (concentration necessary to cause 50% inhibition)
T1 construct: The receptor was prepared from human lymphoblast cells (IM-9); endogenous in cells; host or cells: IM-9 human lymphoblast cells (membrane preparation)
T1 sequence (P25103 whole entry): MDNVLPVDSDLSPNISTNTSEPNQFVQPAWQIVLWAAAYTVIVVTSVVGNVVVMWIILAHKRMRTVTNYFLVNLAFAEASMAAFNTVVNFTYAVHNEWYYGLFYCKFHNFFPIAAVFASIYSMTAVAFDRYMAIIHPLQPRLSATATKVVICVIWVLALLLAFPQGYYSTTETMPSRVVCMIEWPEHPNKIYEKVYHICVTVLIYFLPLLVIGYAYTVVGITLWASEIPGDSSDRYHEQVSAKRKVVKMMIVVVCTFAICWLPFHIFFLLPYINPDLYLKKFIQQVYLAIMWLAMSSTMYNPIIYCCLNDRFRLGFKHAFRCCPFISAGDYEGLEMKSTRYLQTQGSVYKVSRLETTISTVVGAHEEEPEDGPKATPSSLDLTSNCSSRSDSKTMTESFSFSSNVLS
Description: Radioligand receptor binding inhibitory activity (Binding inhibitory activity using receptor from human lymphoblast cells (IM-9))
The method of M. A. Cascieri et al., [Molecular Pharmacology, vol. 42, p. […] The receptor was prepared from human lymphoblast cells (IM-9). IM-9 cells (2×10^5 cells/mL) were incubated for 3 days (one liter), which was then subjected to centrifugation for 5 minutes at 500×G to obtain cell pellets. […] The residue was washed twice with 30 mL of the above-mentioned buffer, which was then preserved frozen (−80° C.) as a specimen of the receptor.
The specimen was suspended in a reaction buffer (50 mM Tri-HCl buffer (pH 7.4), 0.02% bovine serum albumin, 1 mM phenylmethylsulfonyl fluoride, 2 μg/mL chymostatin, 40 μg/mL bacitracin and 3 mM manganese chloride) to have protein in the concentration of 0.5 mg/mL of protein and 100 μL portion of the suspension was used in the reaction. […] The amount of nonspecific binding was determined by adding substance P at a final concentration of 2×10^−6 M.
After the reaction, using a cell harvester (290 PHD, Cambridge Technology, Inc., U.S.A.), filtration was carried out through a glass filter (GF/B, Whatman, U.S.A.), which was immersed in 0.1% polyethyleneimine for 24 hours and dried. After washing three times with 250 μL of 50 mM Tris-HCl buffer (pH 7.4) containing 0.02% bovine serum albumin, the radioactivity remaining on the filter was determined with a gamma counter.

| SMILES | melting point | IC50 (substance P receptors) |
| --- | --- | --- |
| Cl.O=C1CC(C(=O)N2CC[C@H](NCc3cc(-c4ccc(Cl)cc4)ccc3OC(F)(F)F)[C@H](c3ccccc3)C2)CC(=O)N1 | 153 °C | – |
| CC1(C)OC(=O)N(CC(=O)N2CC[C@H](NCc3cc(-c4ccc(C#N)cc4F)ccc3OC(F)(F)F)[C@H](c3ccccc3)C2)C1=O (as salt: hydrochloride) (hydrate or solvate) [Example 97, 3′-[({(3R,4S)-1-[(5,5-dimethyl-2,4-dioxo-1,3-oxazolidin-3-yl)acetyl]-3-phenylpiperidin-4-yl}amino)methyl]-2-fluoro-4′-(trifluoromethoxy)biphenyl-4-carbonitrile] | 198 to 200 °C | – |
| CC1(C)OC(=O)N(CC(=O)N2CC[C@H](NCc3cc(-c4ccc(C#N)cc4)ccc3OC(F)(F)F)[C@H](c3ccccc3)C2)C1=O (as salt: hydrochloride) (hydrate or solvate) [Example 137, 3′-[({(3R,4S)-1-[(5,5-dimethyl-2,4-dioxo-1,3-oxazolidin-3-yl)acetyl]-3-phenylpiperidin-4-yl}amino)methyl]-4′-(trifluoromethoxy)biphenyl-4-carbonitrile] | 197 to 199 °C | – |
| O=C1CC(C(=O)N2CC[C@H](NCc3cc(-c4ccc(Cl)cc4F)ccc3OC(F)(F)F)[C@H](c3ccccc3)C2)CC(=O)N1 (as salt: hydrochloride) [Example 132, 4-{[(3R,4S)-4-({[4′-chloro-2′-fluoro-4-(trifluoromethoxy)biphenyl-3-yl]methyl}amino)-3-phenylpiperidin-1-yl]carbonyl}piperidine-2,6-dione] | 162 to 164 °C | – |
| N#Cc1ccc(-c2ccc(OC(F)(F)F)c(CN[C@H]3CCN(C(=O)CO)C[C@H]3c3ccccc3)c2)c(F)c1 [Example 100, 2-fluoro-3′-({[(3R,4S)-1-glycoloyl-3-phenylpiperidin-4-yl]amino}methyl)-4′-(trifluoromethoxy)biphenyl-4-carbonitrile] | 132 to 134 °C | 0.015 nM |
| N#Cc1ccc(-c2ccc(OC(F)(F)F)c(CN[C@H]3CCN(C(=O)C(N)=O)C[C@H]3c3ccccc3)c2)c(F)c1 [Example 104, 2-[(3R,4S)-4-({[4′-cyano-2′-fluoro-4-(trifluoromethoxy)biphenyl-3-yl]methyl}amino)-3-phenylpiperidin-1-yl]-2-oxoacetamide] | 142 to 144 °C | 0.019 nM |

From US20070149570A1, “Piperidine derivative and use thereof” (priority 2005, published 2007)
